Legend:
Assay type in all cases: in vivo, human
[1] = system: patients with mild to moderate dry eye disease; experiment: Tear film thickness (TFT) by high resolution optical coherence tomography, Example 2
Protocol: (§1) The study is conducted to evaluate the influence of 1-perfluorohexyl-octane (F6H8, NovaTears®) on tear film thickness in patients with mild to moderate dry eye disease. Herein the administration of 1-perfluorohexyl-octane is compared to Hydrabak (0.9% sodium chloride, Laboratoires Théa).
(§2) 48 patients (safety population) are randomized (1:1 ratio) to receive either F6H8 or Hydrabak. One drop of F6H8 (droplet volume=10-11 μl) or Hydrabak is instilled in each eye 4 times daily for 30 days. DED relevant clinical measures are recorded at Visit 1 (day 0, baseline), Visit 2 (15±2 days) and Visit 3 (30±3 days). The primary outcome variable includes Tear film thickness (TFT) as measured with high resolution optical coherence tomography (OCT), while secondary outcome variables comprised Lipid Layer Thickness (LLT) of the tear film (with LipiView Interferometer), Non-Invasive Tear Break Up Time (NITFBUT) with Bon Antares Tear Film Topographer, Dynamic Meibomian Gland Imaging (DMI) with LipiView Interferometer, Blink frequency (with LipiView interferometer), Dry Eye Visual Analogue Scale (VAS), Corneal fluorescein staining, Conjunctival lissamine green staining, Schirmer I test, Tear Film Break Up Time (TFBUT), Ocular Surface Disease Index (OSDI), Adverse Events (AEs) and others.

[2] = system: patients with mild to moderate dry eye disease; experiment: Lipid Layer Thickness (LLT) of the tear film with LipiView Interferometer, Example 2; details: for Lipid Layer Thickness measured in the morning before first daily dosing (relative change from baseline in %): 4 times daily dosing
Protocol: as §1, §2

[3] = system: patients with mild to moderate dry eye disease; experiment: Adverse events, Example 2; details: 4 times daily for 30 days; all adverse effects mild, low incidence
Protocol: as §2

[4] = system: Dry Eye Disease (DED) patients with MGD involvement; experiment: Corneal fluorescein staining (NEI scale), Phase 2 study Example 3; details: vs saline
Protocol: (§3) A Phase 2, Multi-Center, Randomized, Double-Masked, Saline-Controlled Study to Evaluate the Effect of 1-Perfluorohexyloctane (NOV03; F6H8) at two different dosing regimens on signs and symptoms of Dry Eye Disease (DED). The study was performed at 11 investigational cites in the United States. The study was reviewed and approved by the respective ethics committees and registered at www.clinicaltrials.gov (NCT03333057).
(§4) The study is performed to evaluate the safety, efficacy and tolerability of F6H8 at two different dosing regimens compared to saline on signs and symptoms of Dry Eye Disease.
(§5) Study subjects receive one of the following treatments over a period of 4 visits on day 1, 15, 30 and 60: • (1) F6H8 (NOV03), 4 times daily (QID); • (2) F6H8 (NOV03), 2 times daily (BID); • (3) Saline solution (0.9% sodium chloride solution), 4 times daily (QID); • (4) Saline Solution (0.9% sodium chloride solution), 2 times daily (BID).
(§6) In the BID treatment, study subjects instil bilaterally one drop in each lower eyelid conjunctival fornix two times daily. The instilled drop volume of F6H8 is about 10-12 μl, translating to a single dose of 13.5-16.2 mg (with F6H8 density=1.35 g/ml). […]

[5] = system: Dry Eye Disease (DED) patients with MGD involvement; experiment: Eye Dryness Score on Visual Analog Scale (VAS), Phase 2 study Example 3; details: BID, 2, 4 and 8 weeks
Protocol: as §3, §4, §5, §6

[6] = system: Dry Eye Disease (DED) patients with MGD involvement; experiment: Ocular Surface Disease Index (OSDI), Phase 2 study Example 3; details: BID, 2, 4 and 8 weeks
Protocol: as §3
The study is performed to evaluate the safety, efficacy and tolerability of F6H8 at two different dosing regimens compared to saline on signs and symptoms of Dry Eye Disease. […]
The subjects were asked to fill out an OSDI© questionnaire (see for example, Schiffman R M, et al., Arch Ophthalmol. 2000; 118:615-621) consisting of 12 questions, and asked to respond on a scale of 0 to 4, with 0 corresponding to ‘none of the time’ and 4 corresponding to “all of the time”. The questions assess dry eye symptoms experienced by the patient within past week in terms of the following ocular symptoms: sensitivity to light, gritty sensation, pain or sore eyes, blurriness, and poor vision; vision-related function, in terms of problems in: reading, driving at night, working on a computer or bank machine, watching television; and environmental factors or triggers i.e. discomfort during: windy conditions, places with low humidity, and areas with air condition. […]

[7] = system: Dry Eye Disease (DED) patients with MGD involvement; experiment: Adverse events, Phase 2 study Example 3; details: daily dose 20-24 μl
Protocol: as §3, §4, §5
In the BID treatment, study subjects instil bilaterally one drop in each lower eyelid conjunctival fornix two times daily. The instilled drop volume of F6H8 is about 10-12 μl, translating to a single dose of 13.5-16.2 mg (with F6H8 density=1.35 g/ml).

[8] = system: patients with mild to moderate dry eye disease; experiment: Corneal fluorescein staining, Example 2; details: 4 times daily, 4 weeks
Protocol: as §2

Structure (SMILES): CCCCCCCCC(F)(F)C(F)(F)C(F)(F)C(F)(F)C(F)(F)C(F)(F)F [F6H8, 1-perfluorohexyloctane]
- Tear Film Thickness after continuous dosing 4-times daily (relative change from baseline in %) ([1]; 2 weeks, 10 min): 8.71%
- Tear Film Thickness after continuous dosing 4-times daily (relative change from baseline in %) ([1]; 2 weeks, 20 min): 8.57%
- Tear Film Thickness after continuous dosing 4-times daily (relative change from baseline in %) ([1]; 2 weeks, before instillation): 1.43%
- Tear Film Thickness after continuous dosing 4-times daily (relative change from baseline in %) ([1]; 4 weeks, 10 min): 9.12%
- Tear Film Thickness after continuous dosing 4-times daily (relative change from baseline in %) ([1]; 4 weeks, 20 min): 10.35%
- Tear Film Thickness after continuous dosing 4-times daily (relative change from baseline in %) ([1]; 4 weeks, before instillation): 3.22%
- Relative change (%) in Tear film thickness from baseline, F6H8 compared with Hydrabak (primary MMRM analysis) ([1]; 48 subjects of the safety population): significantly higher
- Tear film thickness, least squares mean difference F6H8 vs Hydrabak (MMRM, post-hoc) ([1]; Visit 1, safety population 48 subjects): 1.29%
- Tear film thickness, least squares mean difference F6H8 vs Hydrabak (MMRM, post-hoc) ([1]; Visit 2, safety population 48 subjects): 4.33%
- Tear film thickness, least squares mean difference F6H8 vs Hydrabak (MMRM, post-hoc) ([1]; Visit 3, reached significance): 6.42%
- Tear Film Thickness at study start (relative change from baseline in %) ([1]; single dose on Visit 1, 10 min after instillation): 13.39%
- Tear Film Thickness at study start (relative change from baseline in %) ([1]; single dose on Visit 1, 20 min after instillation): 6.63%
- Tear Film Thickness at study start (relative change from baseline in %) ([1]; single dose on Visit 1, 40 min after instillation): 4.64%
- Tear Film Thickness at study start (relative change from baseline in %) ([1]; single dose on Visit 1, 60 min after instillation): 4.03%
- Tear Film Thickness at study start (relative change from baseline in %) ([1]; single dose on Visit 1, 120 min after instillation): 4.76%
- Tear Film Thickness at study start (relative change from baseline in %) ([1]; single dose on Visit 1, 240 min after instillation): 3.28%
- Lipid Layer Thickness measured in the morning before first daily dosing (relative change from baseline in %) ([2]; 2 weeks): 6.83%
- Lipid Layer Thickness measured in the morning before first daily dosing (relative change from baseline in %) ([2]; 4 weeks): 4.10%
- LLT relative change from baseline, estimated least square mean difference F6H8 vs Hydrabak (post hoc MMRM) ([2]; values recorded before instillation): 16.34%
- Safety and tolerability in patients with DED [3]: safe and well tolerated
- Total corneal fluorescein staining (reduction of ocular surface damage of total corneal region) ([4]; BID dosing regimen, 8 weeks): met its prespecified primary efficacy endpoint
- Reduction of ocular surface damage of central, nasal and temporal corneal region ([4]; BID, fluorescein staining NEI scale): clear improvements
- VAS symptoms of dryness (severity, frequency, awareness of dryness, blurred vision, sensitivity to light) over placebo [5]: highly statistical significant improvement
- Symptoms of dryness by OSDI score incl. total OSDI score over placebo [6]: highly statistical significant improvement
- Adverse effects, 2-times daily schedule (BID) [7]: trend towards less adverse effects
- Corneal Staining reduction compared with Hydrabak group [8]: tended to be stronger reduced

— patent US12569452B2, “Ophthalmic compositions comprising F6H8” (NOVALIQ GMBH, priority 2017, dated 2026)
